Assay results published in ChEMBL document CHEMBL4265903, “Current trends in Hedgehog signaling pathway inhibition by small molecules” (Bioorg Med Chem Lett, 2018).

Legend:
Assay type in all cases: cell-based
[1] = Inhibition of Smo-mediated hedgehog signaling pathway in mouse C3H10T1/2 cells after 6 days by Gli-dependent luciferase reporter gene assay; conditions: C3H 10T1/2, 144 h
[2] = Inhibition of Smo-mediated hedgehog signaling pathway in mouse Light2 cells in Shh conditioned medium after 48 hrs by Gli-Renilla luciferase reporter gene assay
[3] = Inhibition of hedgehog signaling pathway in mouse Light2 cells in Shh-N conditioned medium after 24 hrs by dual luciferase reporter gene assay
[4] = Inhibition of hedgehog signaling pathway in mouse Light2 cells in Shh conditioned medium assessed as reduction in GLI1 expression by Western blot analysis
[5] = Inhibition of hedgehog signaling pathway in mouse Light2 cells in Shh conditioned medium assessed as reduction in GLI2 expression by Western blot analysis

Row | Compound | IC50 [1] | IC50 [2] | other results
1 | COc1cc(C(=O)NC(=N)Nc2ccc(C)c(NC(=O)c3ccc(-c4ccccc4)cc3)c2)cc(OC)c1OC | 15 nM |  | 
2 | CC[C@@H](C)C(=O)O[C@@H](C)[C@]1(O)CC[C@@]2(O)[C@]1(C)[C@H](OC(=O)/C=C/c1ccccc1)C[C@@H]1[C@@]3(C)CC[C@H](O)CC3=CC[C@]12O |  |  | IC50 [3]: 3700 nM
3 | CC[C@H](C)C(=O)O[C@@H](C)[C@]1(O)CC[C@@]2(O)[C@]1(C)[C@H](OC(=O)/C=C/c1ccccc1)C[C@@H]1[C@@]3(C)CC[C@H](O)CC3=CC[C@]12O |  |  | IC50 [3]: 2900 nM
4 | C[C@@H]1CC[C@@]2(NC1)O[C@H]1C[C@H]3[C@@H]4CC=C5C[C@@H](O[C@@H]6O[C@H](CO)[C@H](O)[C@H](O[C@@H]7O[C@H](CO)[C@@H](O)[C@H](O)[C@H]7O)[C@H]6O[C@@H]6O[C@@H](C)[C@H](O)[C@@H](O)[C@H]6O)CC[C@]5(C)[C@H]4CC[C@]3(C)[C@H]1[C@@H]2C [SOLASONINE] |  |  | IC50 [4]: 2490 nM; IC50 [5]: 2300 nM

The next lines start with results.

Row | IC50 [1] | IC50 [2] | Compound | other results
5 | 650 nM |  | COc1cc(C(=O)NC(=S)Nc2cccc(NC(=O)c3ccccc3)c2)cc(OC)c1OC | 
6 |  | 4440 nM | COc1ccc(/C=C/C(=O)c2cc(OC)c(OC)cc2OC)cc1OC | 
7 |  | 1400 nM | Cc1ccc(Cn2ncc3nc(-c4ccc(N5CCN(C(=O)CCc6c[nH]c7ccccc67)CC5)cc4)[nH]c32)cc1 | 
8 | 2.8 nM |  | COc1cc(C(=O)NC(=N)Nc2ccc(C)c(NC(=O)c3ccc(CCc4ccccc4)cc3)c2)cc(OC)c1OC | 
9 |  | 690 nM | CCC(C)n1ncn(-c2ccc(N3CCN(c4ccc(OCC5COC(Cn6cncn6)(c6ccc(Cl)cc6Cl)O5)cc4)CC3)cc2)c1=O (stereo not given) [ITRACONAZOLE] | 
